Source: patent US9783511B2, “Carbamate benzoxazine propionic acids and acid derivatives for modulation of RORgamma activity and the treatment of disease” (Merck Sharp & Dohme Corp., priority 2013, dated 2017)

Molecular target: human RORgammaT-Ligand Binding Domain (LBD) (Homo sapiens (Human), UniProt P51449)
Assay: RORγ-Ligand Binding Domain TR-FRET Assay (co-activator peptide SRC1_2 recruitment)
Type: biochemical
Details: HIS-tagged RORγ-LBD 3 nM, biotinylated SRC1 LXXLL peptide 100 nM, incubated overnight at 4° C., 665 nm/615 nm ratio
In short: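 E. coli-expressed, Ni2+-purified HIS-tagged human RORγ-LBD at 3 nM final in 50 mM Tris pH 7.0, 50 mM KCl, 1 mM EDTA, 0.1 mM DTT, 100 μg/mL delipidated BSA. TR-FRET read-out of SRC1_2 co-activator peptide recruitment; compounds dispensed acoustically.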

Chain of human RORgammaT-Ligand Binding Domain (LBD) (P51449 269-508): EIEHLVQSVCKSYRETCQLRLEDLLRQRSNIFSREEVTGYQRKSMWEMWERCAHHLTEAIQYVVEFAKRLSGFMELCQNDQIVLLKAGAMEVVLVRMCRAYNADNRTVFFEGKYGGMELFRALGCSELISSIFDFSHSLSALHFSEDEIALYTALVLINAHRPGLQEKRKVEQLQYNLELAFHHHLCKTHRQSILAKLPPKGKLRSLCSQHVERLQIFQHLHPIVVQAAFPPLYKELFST

IC50 [nM]	Structure (SMILES)
6	CC(C)(OC(=O)Nc1ccc2c(c1)N(S(=O)(=O)c1cccc(Br)c1)C[C@H](CCC(=O)O)O2)C(F)(F)F [Example 6AA, (S)-3-(4-((3-bromophenyl)sulfonyl)-6-((((1,1,1-trifluoro-2-methylpropan-2-yl)oxy)carbonyl)amino)-3,4-dihydro-2H-benzo[b][1,4]oxazin-2-yl)propanoic acid]
9	CCOc1nn(C(F)F)cc1S(=O)(=O)N1C[C@H](CCC(=O)O)Oc2ccc(NC(=O)OC(C)(C)C(F)(F)F)cc21 [Example 6AB, (S)-3-(4-((1-(difluoromethyl)-3-ethoxy-1H-pyrazol-4-yl)sulfonyl)-6-((((1,1,1-trifluoro-2-methylpropan-2-yl)oxy)carbonyl)amino)-3,4-dihydro-2H-benzo[b][1,4]oxazin-2-yl)propanoic acid]
8	CC(C)(OC(=O)Nc1ccc2c(c1)N(S(=O)(=O)c1cccc(C3CC3)c1)C[C@H](CCC(=O)O)O2)C(F)(F)F [Example 6AC, (S)-3-(4-((3-cyclopropylphenyl)sulfonyl)-6-((((1,1,1-trifluoro-2-methylpropan-2-yl)oxy)carbonyl)amino)-3,4-dihydro-2H-benzo[b][1,4]oxazin-2-yl)propanoic acid]
12.4	CC(C)(OC(=O)Nc1ccc2c(c1)N(S(=O)(=O)c1ccc3c(c1)CCO3)C[C@H](CCC(=O)O)O2)C(F)(F)F [Example 6AE, (S)-3-(4-((2,3-dihydrobenzofuran-5-yl)sulfonyl)-6-((((1,1,1-trifluoro-2-methylpropan-2-yl)oxy)carbonyl)amino)-3,4-dihydro-2H-benzo[b][1,4]oxazin-2-yl)propanoic acid]
6.2	CC(C)(OC(=O)Nc1ccc2c(c1)N(S(=O)(=O)c1c(Cl)nc3sccn13)C[C@H](CCC(=O)O)O2)C(F)(F)F [Example 6AF, (S)-5-((2-(2-carboxyethyl)-6-((((1,1,1-trifluoro-2-methylpropan-2-yl)oxy)carbonyl)amino)-2H-benzo[b][1,4]oxazin-4(3H)-yl)sulfonyl)-6-chloroimidazo[2,1-b]thiazole]
8.84	CC(C)(OC(=O)Nc1ccc2c(c1)N(S(=O)(=O)c1ccc(Cl)c(Cl)c1)C[C@H](CCC(=O)O)O2)C(F)(F)F [Example 6AH, (S)-3-(4-((3,4-dichlorophenyl)sulfonyl)-6-((((1,1,1-trifluoro-2-methylpropan-2-yl)oxy)carbonyl)amino)-3,4-dihydro-2H-benzo[b][1,4]oxazin-2-yl)propanoic acid]
14	Cc1ccc(S(=O)(=O)N2C[C@H](CCC(=O)O)Oc3ccc(NC(=O)OC(C)(C)C(F)(F)F)cc32)cc1Cl [Example 6AJ, (S)-3-(4-((3-chloro-4-methylphenyl)sulfonyl)-6-((((1,1,1-trifluoro-2-methylpropan-2-yl)oxy)carbonyl)amino)-3,4-dihydro-2H-benzo[b][1,4]oxazin-2-yl)propanoic acid]
11.1	Cc1c(Cl)cc(F)cc1S(=O)(=O)N1C[C@H](CCC(=O)O)Oc2ccc(NC(=O)OC(C)(C)C(F)(F)F)cc21 [Example 6AK, (S)-3-(4-((3-chloro-5-fluoro-2-methylphenyl)sulfonyl)-6-((((1,1,1-trifluoro-2-methylpropan-2-yl)oxy)carbonyl)amino)-3,4-dihydro-2H-benzo[b][1,4]oxazin-2-yl)propanoic acid]
15	CC(C)(OC(=O)Nc1ccc2c(c1)N(S(=O)(=O)c1ccc(Cl)cn1)C[C@H](CCC(=O)O)O2)C(F)(F)F [Example 6AL, (S)-2-((2-(2-carboxyethyl)-6-((((1,1,1-trifluoro-2-methylpropan-2-yl)oxy)carbonyl)amino)-2H-benzo[b][1,4]oxazin-4(3H)-yl)sulfonyl)-5-chloropyridine]
17.1	COc1cc(C)ccc1S(=O)(=O)N1C[C@H](CCC(=O)O)Oc2ccc(NC(=O)OC(C)(C)C(F)(F)F)cc21 [Example 6AQ, (S)-3-(4-((2-methoxy-4-methylphenyl)sulfonyl)-6-((((1,1,1-trifluoro-2-methylpropan-2-yl)oxy)carbonyl)amino)-3,4-dihydro-2H-benzo[b][1,4]oxazin-2-yl)propanoic acid]
24.1	COc1cc(S(=O)(=O)N2C[C@H](CCC(=O)O)Oc3ccc(NC(=O)OC(C)(C)C(F)(F)F)cc32)ccn1 [Example 6AV, (S)-4-((2-(2-carboxyethyl)-6-((((1,1,1-trifluoro-2-methylpropan-2-yl)oxy)carbonyl)amino)-2H-benzo[b][1,4]oxazin-4(3H)-yl)sulfonyl)-2-methoxypyridine]
7.71	Cc1cc(S(=O)(=O)N2C[C@H](CCC(=O)O)Oc3ccc(NC(=O)OC(C)(C)C(F)(F)F)cc32)c(F)cc1F [Example 6AW, (S)-3-(4-((2,4-difluoro-5-methylphenyl)sulfonyl)-6-((((1,1,1-trifluoro-2-methylpropan-2-yl)oxy)carbonyl)amino)-3,4-dihydro-2H-benzo[b][1,4]oxazin-2-yl)propanoic acid]
9.92	Cc1nn(C(F)F)cc1S(=O)(=O)N1C[C@H](CCC(=O)O)Oc2ccc(NC(=O)OC(C)(C)C(F)(F)F)cc21 [Example 6AX, (S)-4-((2-(2-carboxyethyl)-6-((((1,1,1-trifluoro-2-methylpropan-2-yl)oxy)carbonyl)amino)-2H-benzo[b][1,4]oxazin-4(3H)-yl)sulfonyl)-1-(difluoromethyl)-3-methyl-1H-pyrazole]
7.31	Cc1cc(S(=O)(=O)N2C[C@H](CCC(=O)O)Oc3ccc(NC(=O)OC(C)(C)C(F)(F)F)cc32)c(Cl)cc1F [Example 6BA, (S)-3-(4-((2-chloro-4-fluoro-5-methylphenyl)sulfonyl)-6-((((1,1,1-trifluoro-2-methylpropan-2-yl)oxy)carbonyl)amino)-3,4-dihydro-2H-benzo[b][1,4]oxazin-2-yl)propanoic acid]
11.9	CCn1cc(S(=O)(=O)N2C[C@H](CCC(=O)O)Oc3ccc(NC(=O)OC(C)(C)C(F)(F)F)cc32)c(OC(F)F)n1 [Example 6BC, (S)-3-(4-((3-(difluoromethoxy)-1-ethyl-1H-pyrazol-4-yl)sulfonyl)-6-((((1,1,1-trifluoro-2-methylpropan-2-yl)oxy)carbonyl)amino)-3,4-dihydro-2H-benzo[b][1,4]oxazin-2-yl)propanoic acid]
14.8	CC(C)(OC(=O)Nc1ccc2c(c1)N(S(=O)(=O)c1cccc(S(F)(F)(F)(F)F)c1)C[C@H](CCC(=O)O)O2)C(F)(F)F [Example 6BD, 3-[(2S)-4-{[3-(pentafluoro-lambda~6~- sulfanyl)phenyl]sulfonyl}-6-{[(2,2,2-trifluoro-1,1-dimethylethoxy)carbonyl]amino}-3,4-dihydro-2H-1,4-benzoxazin-2-yl]propanoic acid]
10.9	CC(C)(OC(=O)Nc1ccc2c(c1)N(S(=O)(=O)c1cncc(Br)c1)C[C@H](CCC(=O)O)O2)C(F)(F)F [Example 6BU, 3-[(2S)-4-[(5-bromopyridin-3-yl)sulfonyl]-6-{[(2,2,2-trifluoro-1,1-dimethylethoxy)carbonyl]amino}-3,4-dihydro-2H-1,4-benzoxazin-2-yl]propanoic acid]
8.84	CC(C)(OC(=O)Nc1ccc2c(c1)N(S(=O)(=O)c1cncc(C3CC3)c1)C[C@H](CCC(=O)O)O2)C(F)(F)F [Example 6BV, 3-[(2S)-4-[(5-cyclopropylpyridin-3-yl)sulfonyl]-6-{[(2,2,2-trifluoro-1,1-dimethylethoxy)carbonyl]amino}-3,4-dihydro-2H-1,4-benzoxazin-2-yl]propanoic acid]
